From US11453642B2, “Oxygenated amino- or ammonium-containing sulfonic acid, phosphonic acid and carboxylic acid derivatives and their medical use” (GRI BIO, INC., priority 2011, dated 2022) come the findings set out here.

The assay concerns DTH response in mice. Format: in vivo. The note with it: DTH; for Inhibition of mouse ear swelling: 24 h after challenge; for inhibition relative to that of the high dose of dexamethasone: versus dexamethasone 1 mg/kg. As to the method:
The anti-inflammatory and anti-allergic effects of compounds 1a and 1c were assessed in a mouse model of skin delayed-type hypersensitivity (DTH) reactions and compared to a vehicle control and to the reference drug dexamethasone. DTH reactions are antigen-specific cell-mediated immune responses, driven primarily by T helper type 1 (Th1) cells, similar to the tuberculin immunization response. The immune reaction induced by an ovalbumin challenge to animals previously sensitized with ovalbumin in Complete Freund's Adjuvant, is characterized by swelling (edema) at the site of challenge, e.g. the mouse ear. Dexamethasone, an anti-inflammatory steroid, reduces cell-mediated immune responses and was employed to validate the responsiveness of the assay to pharmacological treatment.
Female BALB/cJW mice were bred at the University of Lodz, Lodz, Poland and housed in groups of 8 in makrolon cages with a 12 h light-dark cycle. Mice were given free access to food (Agropol S.j., Motycz, Poland) and water.
Sensitization: The protein antigen, ovalbumin, was reconstituted in PBS at 4 mg/ml. An ovalbumin-CFA emulsion was prepared by mixing the protein solution with the CFA suspension at a ratio of 1:1, using two Luer-lock syringes. The emulsion was tested by putting a drop of emulsion onto PBS; if the emulsion remained as a tight droplet on the PBS, the emulsion was deemed ready. Mice were sensitized by subcutaneously injecting 25 μL of emulsion into each side of the tail (100 μg ovalbumin per mouse).
Challenge: On the sixth day after sensitization, DTH was elicited by challenging animals subcutaneously (gauge 30 needle, B. Braun Melsungen, Melsungen, Germany) in the left ears with 10 μL of a 1% suspension of heat-aggregated ovalbumin (HOVA) (100 μg ovalbumin per mouse). The right ears were administered subcutaneously with PBS and served to determine the individual differences in ear thicknesses. HOVA was prepared by heating a 5% solution of ovalbumin in saline for 1 h at 80° C. with occasional swirling. After cooling to room temperature and centrifugation (400 g. 10 min at 4° C.), the pellet was washed twice with saline, resuspended at 2% in PBS and aliquots stored at −30° C. Before injection, HOVA was diluted with an equal volume of PBS and sonicated. Ear thickness was measured with a precise spring-loaded caliper (Art. No. 7309, Mitutoyo, Kawasaki, Japan) before challenge, and 24 h after challenge.
Sensitization, challenge and ear thickness measurement were performed under anesthesia (ketamine 80 mg/kg plus xylazine 8 mg/kg, intraperitoneally).
The anti-inflammatory effects of compounds 1a and 1c were compared to a vehicle control (0.5% methyl cellulose solution) and to the reference drug, dexamethasone. Test compounds were given at 25 or 100 mg/kg orally by gavage (Art. No. 432093, Harvard Apparatus GmbH, March-Hugstetten, Germany) 16 h and 3 h before sensitization and then twice daily with the final dose given 3 h prior to ear challenge (a total of 14 administrations). Dexamethasone was given at 0.1 or 1 mg/kg orally by gavage 3 h before sensitization and once daily with the final dose given 3 h prior to antigen challenge (a total of 7 administrations). All administrations were given in a volume of 10 ml/kg.
To account for individual variability, the increase in right ear thickness, before and 24 h after administration of PBS, was subtracted from the HOVA-induced increase in left ear thickness. The increase in ear thickness was calculated by the difference between ear thickness before and 24 h after antigen challenge. Percent inhibition of ear swelling was calculated according to the following formula: % inhibition=100×(IETvehicle−IETcompound)/IETvehicle where IET=(ET24 hrs pc−ETpredose)HOVA-treated ears−(ET24 hrs pc−ETpredose)PBS-treated ears • (IET, increase ear thickness; ET, ear thickness; pc, post challenge)
Mean and standard deviation (SD) were calculated from individual ear edema values. […]

The mark [1] stands for this setting: 100 mg/kg orally twice daily (14 administrations).

Read-outs that look alike come from different tables or passages of the source.

Consider `CCCCCCCCCCCCCCCCN(C)CC(O)CS(=O)(=O)O` (centres unmarked) [Compound 1a, 2-hydroxy-3-(N-methylhexadecylammonio)propane-sulfonate], for which the “inhibition relative to that of the high dose of dexamethasone” value was “up to 98%”. For the same compound, the “Inhibition of mouse ear swelling” value (25 mg/kg orally twice daily (14 administrations)) stood at 49%. Besides, the “Inhibition of mouse ear swelling” value under setting [1] is 52%.
Regarding `CCCCCCCCCCCCN(C)CC(O)CS(=O)(=O)O` (centres unmarked) [Compound 1c, 2-hydroxy-3-(N-methyldodecylammonio)propanesulfonate], the “inhibition relative to that of the high dose of dexamethasone” value stood at 77%. Also, the “Inhibition of mouse ear swelling” value under setting [1] worked out at 41%.
